Columns and labels:
[1] = system: ESR1 transcription in MVLN cells; assay: MVLN reporter assay: repression of ESR1 transcription (luciferase signal); format: cell-based; conditions: Homo sapiens, MVLN, 24 h, luciferase signal after 24 h, read-out: MVLN reporter assay, IC50 [M] (arithmetic mean)
Source text: KAT6A controls transcription of the ESR1 gene in breast cancer cells. Compound treatment that interferes with this mechanism was quantified using MVLN cells. These cells constitutively express the ER and are stably transfected with the luciferase (LUC) reporter gene and the corresponding hormone responsive element derived from the 5′-flanking region of the Xenopus Vitellogenin A2 gene (Pons et al., 1990, Demirpense et al., 1993, Joyeux et al., 1993). The repressive effect on ERα transcription activity of a test chemical is directly related to the luciferase measured in the lysate of treated MVLN cells. […] Each sample was prepared as duplicate and rim wells were excluded. For luciferase signal determination 100 μl of a 1:1 mixture of Steadylite plus (Perkin Elmer; 6016759) and assay medium was added after 24 h for 15 minutes and measured in Victor X3 (Perkin Elmer). To exclude any effects caused by cell loss during the treatment, cell density was determined using Alamar Blue (Invitrogen; DAL1100). Prior to the luciferase measurement 10 μl Alamar Blue were added to each well and the plates were incubated for 2 h in the incubator. Then fluorescence was measured with Victor X3 (Perkin Elmer) at 530 nm/590 nm.

[2] = biological target: T1, Recombinant human His-tagged Kat6a protein (amino acids 194-810) (Homo sapiens, UniProt Q92794); assay: Kat6a activity assay (TR-FRET, acetylation of Histone-H4-derived peptide); format: biochemical; conditions: 60 mins at 22° C., 220 nM H4 peptide, 600 nM Acetyl Coenzyme A, read-out: KAT6A - DPF/HAT domain IC50 [mol/l] (arithmetic mean)
T1 construct: Kat6a protein (amino acids 194-810); His
T1 sequence (Q92794 194-810): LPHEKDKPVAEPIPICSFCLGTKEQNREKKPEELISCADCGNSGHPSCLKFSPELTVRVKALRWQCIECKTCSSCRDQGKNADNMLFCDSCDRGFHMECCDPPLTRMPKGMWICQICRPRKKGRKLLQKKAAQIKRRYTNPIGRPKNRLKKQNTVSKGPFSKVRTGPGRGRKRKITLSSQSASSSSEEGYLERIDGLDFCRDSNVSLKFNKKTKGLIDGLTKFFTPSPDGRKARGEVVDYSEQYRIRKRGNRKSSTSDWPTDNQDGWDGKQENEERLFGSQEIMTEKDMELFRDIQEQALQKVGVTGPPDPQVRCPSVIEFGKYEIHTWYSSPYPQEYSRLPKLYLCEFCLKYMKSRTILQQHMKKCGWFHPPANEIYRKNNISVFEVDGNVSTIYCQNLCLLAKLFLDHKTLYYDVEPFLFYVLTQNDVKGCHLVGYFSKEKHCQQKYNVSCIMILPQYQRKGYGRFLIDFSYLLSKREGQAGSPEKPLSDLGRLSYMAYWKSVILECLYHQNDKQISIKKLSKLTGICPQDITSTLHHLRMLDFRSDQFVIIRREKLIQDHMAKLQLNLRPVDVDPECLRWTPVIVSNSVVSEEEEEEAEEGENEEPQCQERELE
Method: Kat6a inhibitory activities of the compounds described in the present invention were quantified using a Fluorescence Resonance Energy Transfer (TR-FRET) assay which measures acetylation of a synthetic, biotinylated Histone-H4-derived peptide by the enzyme.
In this case 50 nl DMSO were used instead of compounds. […] IC50 values were determined by regression analysis based on a 4 parameter equation (minimum, maximum, ICM, Hill; Y=Max+(Min−Max)/(1+(X/ICso) Hill) using the Screener Software (Genedata).

Structure (SMILES)	IC50 [1]	IC50 [2]
CCc1csc(C)c1S(=O)(=O)NC(=O)c1cc2c(F)cc(N3CCC3)cc2o1 [Example 36, 6-(Azetidin-1-yl)-N-(4-ethyl-2-methylthiophene-3-sulfonyl)-4-fluoro-1-benzofuran-2-carboxamide]	6.04e-07 M	367 nM
COc1ccc(-c2cccnc2)cc1S(=O)(=O)NC(=O)c1cc2c(F)cc(N3CCC3)cc2o1 [Example 200, 6-(Azetidin-1-yl)-4-fluoro-N-[2-methoxy-5-(pyridin-3-yl)benzene-1-sulfonyl]-1-benzofuran-2-carboxamide]	5.5e-07 M	34.1 nM
COC(=O)CCc1ccccc1S(=O)(=O)NC(=O)c1cc2c(F)cc(N3CCC3)cc2o1 [Example 102, Methyl 3-(2-{[6-(azetidin-1-yl)-4-fluoro-1-benzofuran-2-carbonyl]sulfamoyl}phenyl)propanoate]	4.07e-06 M	116 nM
COc1ccc(N2CCN(C)CC2)cc1S(=O)(=O)NC(=O)c1cc2c(F)cc(N3CCC3)cc2o1 [Example 202, 6-(Azetidin-1-yl)-4-fluoro-N-[2-methoxy-5-(4-methylpiperazin-1-yl)benzene-1-sulfonyl]-1-benzofuran-2-carboxamide]	1.04e-06 M	84.5 nM
NS(=O)(=O)c1cc(OC(=O)c2cc3c(F)cc(N4CCC4)cc3o2)cc2ccccc12 [Example 98, 4-Sulfamoylnaphthalen-2-yl 6-(azetidin-1-yl)-4-fluoro-1-benzofuran-2-carboxylate]	> 2e-05 M	> 20000 nM
O=C(NS(=O)(=O)c1ccccc1/C=C/C(F)(F)F)c1cc2c(F)cc(N3CCC3)cc2o1 [Example 55, 6-(Azetidin-1-yl)-4-fluoro-N-{2-[(1E)-3,3,3-trifluoroprop-1-en-1-yl]benzene-1-sulfonyl}-1-benzofuran-2-carboxamide]	1.69e-06 M	106 nM
COc1ccc(-c2c(C)noc2C)cc1S(=O)(=O)NC(=O)c1cc2c(F)cc(N3CCC3)cc2o1 [Example 194, 6-(Azetidin-1-yl)-N-[5-(3,5-dimethyl-1,2-oxazol-4-yl)-2-methoxybenzene-1-sulfonyl]-4-fluoro-1-benzofuran-2-carboxamide]	7.76e-08 M	4.19 nM
Cc1nc(N)c(S(=O)(=O)NC(=O)c2cc3c(F)cc(N4CCC4)cc3o2)c(C)c1Cl [Example 104, N-(2-amino-5-chloro-4,6-dimethylpyridine-3-sulfonyl)-6-(azetidin-1-yl)-4-fluoro-1-benzofuran-2-carboxamide]	1.05e-05 M	793 nM
O=C(NS(=O)(=O)c1cccc2c1OCCO2)c1cc2c(F)cc(N3CCC3)cc2o1 [Example 172, 6-(Azetidin-1-yl)-N-(2,3-dihydro-1,4-benzodioxine-5-sulfonyl)-4-fluoro-1-benzofuran-2-carboxamide]	1.35e-07 M	34 nM
CC(O)c1ccc(Cl)c(S(=O)(=O)NC(=O)c2cc3c(F)cc(N4CCC4)cc3o2)c1 (racemic) [Example 100, 6-(Azetidin-1-yl)-N-[2-chloro-5-(1-hydroxyethyl)benzene-1-sulfonyl]-4-fluoro-1-benzofuran-2-carboxamide (rac)]	1.29e-06 M	139 nM
COc1c(S(=O)(=O)NC(=O)c2cc3c(F)cc(N4CCC4)cc3o2)ccc(Cl)c1Cl [Example 183, 6-(Azetidin-1-yl)-N-(3,4-dichloro-2-methoxybenzene-1-sulfonyl)-4-fluoro-1-benzofuran-2-carboxamide]	9.24e-07 M	82.8 nM
O=C(NS(=O)(=O)c1cnc2c(Cl)cc(Cl)cn12)c1cc2c(F)cc(N3CCC3)cc2o1 [Example 168, 6-(Azetidin-1-yl)-N-(6,8-dichloroimidazo[1,2-a]pyridine-3-sulfonyl)-4-fluoro-1-benzofuran-2-carboxamide]	> 2e-05 M	671 nM
CC(=O)Nc1ccc(S(=O)(=O)NC(=O)c2cc3c(F)cc(N4CCC4)cc3o2)c2ccccc12 [Example 185, N-(4-Aacetamidonaphthalene-1-sulfonyl)-6-(azetidin-1-yl)-4-fluoro-1-benzofuran-2-carboxamide]	9.61e-06 M	195 nM
Cc1cnc(Cl)c(S(=O)(=O)NC(=O)c2cc3c(F)cc(N4CCC4)cc3o2)c1 [Example 60, 6-(Azetidin-1-yl)-N-(2-chloro-5-methylpyridine-3-sulfonyl)-4-fluoro-1-benzofuran-2-carboxamide]	5.29e-06 M	476 nM
Cc1cccc(OC(C)C)c1S(=O)(=O)NC(=O)c1cc2c(F)cc(N3CCC3)cc2o1 [Example 86, 6-(Azetidin-1-yl)-4-fluoro-N-{2-methyl-6-[(propan-2-yl)oxy]benzene-1-sulfonyl}-1-benzofuran-2-carboxamide]	3.33e-07 M	54.8 nM
COc1ccc2cccnc2c1S(=O)(=O)NC(=O)c1cc2c(F)cc(N3CCC3)cc2o1 [Example 8, 6-(Azetidin-1-yl)-4-fluoro-N-(7-methoxyquinoline-8-sulfonyl)-1-benzofuran-2-carboxamide]	1.25e-07 M	21 nM
Cc1cc(C(C)(C)C)cc(S(=O)(=O)NC(=O)c2cc3c(F)cc(N4CCC4)cc3o2)c1C [Example 189, 6-(Azetidin-1-yl)-N-(5-tert-butyl-2,3-dimethylbenzene-1-sulfonyl)-4-fluoro-1-benzofuran-2-carboxamide]	1.3e-07 M	8.59 nM
NS(=O)(=O)c1cc(COC(=O)c2cc3c(F)cc(N4CCC4)cc3o2)ccc1OC(F)(F)F [Example 93, [3-sulfamoyl-4-(trifluoromethoxy)phenyl]methyl 6-(azetidin-1-yl)-4-fluoro-1-benzofuran-2-carboxylate]	> 2e-05 M	1160 nM
CC(=O)c1ccc(Cl)c(S(=O)(=O)NC(=O)c2cc3c(F)cc(N4CCC4)cc3o2)c1 [Example 99, N-(5-Acetyl-2-chlorobenzene-1-sulfonyl)-6-(azetidin-1-yl)-4-fluoro-1-benzofuran-2-carboxamide]	8.1e-07 M	272 nM
Cc1ccc(OC2CCCC2)c(S(=O)(=O)NC(=O)c2cc3c(F)cc(N4CCC4)cc3o2)c1 [Example 9, 6-(Azetidin-1-yl)-N-[2-(cyclopentyloxy)-5-methylbenzene-1-sulfonyl]-4-fluoro-1-benzofuran-2-carboxamide]	1.34e-07 M	21.2 nM
Cc1ccc(C(C)C)cc1S(=O)(=O)NC(=O)c1cc2c(F)cc(N3CCC3)cc2o1 [Example 32, 6-(Azetidin-1-yl)-4-fluoro-N-[2-methyl-5-(propan-2-yl)benzene-1-sulfonyl]-1-benzofuran-2-carboxamide]	5.11e-07 M	34.2 nM
O=C(NS(=O)(=O)c1ccccc1I)c1cc2c(F)cc(N3CCC3)cc2o1 [Example 22, 6-(Azetidin-1-yl)-4-fluoro-N-(2-iodobenzene-1-sulfonyl)-1-benzofuran-2-carboxamide]	3.19e-07 M	34 nM
CN(C)C(=O)c1ccccc1S(=O)(=O)NC(=O)c1cc2c(F)cc(N3CCC3)cc2o1 [Example 51, 6-(Azetidin-1-yl)-N-[2-(dimethylcarbamoyl)benzene-1-sulfonyl]-4-fluoro-1-benzofuran-2-carboxamide]	1.51e-06 M	189 nM
O=C(NS(=O)(=O)c1cccc2c1NCCC2)c1cc2c(F)cc(N3CC(F)C3)cc2o1 [Example 110, 4-Fluoro-6-(3-fluoroazetidin-1-yl)-N-(1,2,3,4-tetrahydroquinoline-8-sulfonyl)-1-benzofuran-2-carboxamide]	5.47e-07 M	208 nM
CC(C)N(C)c1cc(F)c(S(=O)(=O)NC(=O)c2cc3c(F)cc(N4CC(F)C4)cc3o2)c(F)c1 [Example 164, N-{2,6-difluoro-4-[methyl(propan-2-yl)amino]benzene-1-sulfonyl}-4-fluoro-6-(3-fluoroazetidin-1-yl)-1-benzofuran-2-carboxamide]	2.34e-06 M	251 nM
CN(C)c1ccccc1S(=O)(=O)NC(=O)c1cc2c(F)cc(N3CCC3)cc2o1 [Example 11, 6-(Azetidin-1-yl)-N-[2-(dimethylamino)benzene-1-sulfonyl]-4-fluoro-1-benzofuran-2-carboxamide]	1.45e-07 M	75.2 nM
O=C(NS(=O)(=O)c1cccc2c1OCCO2)c1cc2c(F)cc(N3CC(F)C3)cc2o1 [Example 109, N-(2,3-dihydro-1,4-benzodioxine-5-sulfonyl)-4-fluoro-6-(3-fluoroazetidin-1-yl)-1-benzofuran-2-carboxamide]	5.92e-07 M	172 nM
CCCc1ccc2nc(Cl)c(S(=O)(=O)NC(=O)c3cc4c(F)cc(N5CCC5)cc4o3)n2n1 [Example 147, 6-(Azetidin-1-yl)-N-(2-chloro-6-propylimidazo[1,2-b]pyridazine-3-sulfonyl)-4-fluoro-1-benzofuran-2-carboxamide]	2.98e-06 M	91.5 nM

Source: patent publication US20240279207A1, “SUBSTITUTED ACYL SULFONAMIDES FOR TREATING CANCER” (The Broad Institute, Inc., priority 2020, published 2024)
